# Values of other authors, collected in patent US20060251623A1, “Packaged virus-like particles” (priority 2003, published 2006).
# Key:
# [1] = test system: VLP-induced CTL responses; details: TLR ligand alone compared with CpGs; Schwarz et al., (2003) Eur. J. Immunol., 33, 1465-1470
# blood cells = details: Kuramoto E. et al., Japanese Journal Cancer Research 83, 1128-1131 (1992)
Compound,Enhancement of VLP-induced CTL responses [1],Stimulation of blood cells in vitro (blood cells)
polyinosinic-polycytidylic acid [poly (I:C)],failed to enhance VLP-induced CTL responses in a way similar to CpGs,–
CC(C)Cn1cnc2c(N)nc3ccccc3c21 [imiquimode],failed to enhance VLP-induced CTL responses in a way similar to CpGs,–
flagellin,failed to enhance VLP-induced CTL responses in a way similar to CpGs,–
GGGGGGGGGGGACGATCGTCGGGGGGGGGG [SEQ ID NO: 54],–,able to stimulate blood cells in vitro
